Assay results reported in paper PMC4686662 (Nature Communications, 2015).
Converted amounts (≈) assume the structure as drawn. Like-named read-outs stand apart in the source and are kept apart here.

Columns and labels:
S. aureus = experiment: MIC, broth microdilution, S. aureus strains; format: cell-based; settings: Staphylococcus aureus
Procedure: (§1) Antibacterial minimum inhibitory concentrations (MICs) were determined from two independent experiments using broth microdilution methods according to Clinical and Laboratory Standards Institute guidelines. […] Bacterial strains used were from GSK's culture collection.
(§2) The quinolone resistance-determining region (QRDR) or full-length of gyrA/B and parC/E were amplified by PCR from the resistant mutants and DNA sequenced using the following primer pairs (all 5′–3′ sequence): for S. aureus gyrA: […] and […]; gyrB […] and […]; parC […] and […], and parE […] and […], respectively. For S. pneumoniae gyrA: […] and […]; gyrB: […] and […]; parC: […] and […], and parE: […] and […], respectively. […] Mutations in etoposide-resistant transformants were confirmed by PCR and DNA analysis.

S. aureus DNA gyrase [1] = biological target: T1, S. aureus DNA gyrase (Staphylococcus aureus, UniProt P0A0K8+P20831); experiment: biochemical; format: biochemical; settings: for Type of DNA breaks stabilized with S. aureus DNA gyrase: each compound 100 μM, supercoiled pBR322, full-length S. aureus gyrase
T1 construct: Full-length S. aureus GyrA and GyrB were expressed in E. coli and purified as described; made in house; host or cells: E. coli
Procedure: (§3) BlueJuice gel loading buffer (Invitrogen) was added. […] See Supplementary Fig. 15 for representative gels.

E. coli = experiment: MIC, broth microdilution, E. coli strains; format: cell-based, Escherichia coli
Procedure: as §1

S. pneumoniae = experiment: MIC, broth microdilution, S. pneumoniae strains; format: cell-based; settings: Streptococcus pneumoniae
Procedure: as §1, §2

S. aureus Topo IV [2] = biological target: T2, S. aureus Topo IV (Staphylococcus aureus, UniProt P0C1S7+P0C1U9); set-up: method as in earlier work; settings: read-out: IC50, S. aureus Topo IV decatanation; supplementary ref 4; cited from earlier work
T2 construct: purchased Inspiralis

human Top2β = tested on: human Top2β; set-up: method as in PMID 26149691; settings: cited from earlier work
E. coli Topo IV [3] = biological target: T3, E. coli Topo IV (Escherichia coli, UniProt P0AFI2+P20083); settings: read-out: IC50, E. coli Topo IV decatanation; supplementary ref 3; cited from earlier work
T3 construct: purchased Inspiralis

E. coli DNA gyrase [4] = biological target: T4, E. coli DNA gyrase (Escherichia coli, UniProt P0AES4+P0AES6); settings: concentrations showing similar intensities of DSB
Human Top2α [5] = biological target: T5, Human Top2α (Homo sapiens, UniProt P11388); experiment: Human Top2α relaxation inhibition assay; format: biochemical
Human Top2α [6] = biological target: T5, Human Top2α; experiment: DNA cleavage assay with human Top2α
Procedure: as §3

E. coli DNA gyrase [7] = biological target: T4, E. coli DNA gyrase; experiment: E. coli DNA gyrase supercoiling inhibition assay; format: biochemical; set-up: E. coli full-length DNA gyrase subunits A and B (both N-terminally 6-His-tagged) produced in-house; 6-His (N); made in house
Procedure: (§4) In vitro topoisomerase activity assays were performed as described with minor modifications. […] For E. coli DNA gyrase supercoiling assays, 3.4 nM of wild-type E. coli DNA gyrase (Inspiralis) was incubated with 500 ng relaxed pBR322 plasmid DNA in a 30-μl reaction containing the same buffer mixture but without the potassium glutamate. For S. aureus topo IV decatenation assays, 4 nM of S. aureus topo IV was incubated with 200 ng kinetoplast DNA in buffer as described by the manufacturer (Inspiralis). In E. coli topo IV decatenation assay, 0.125 nM of E. coli topo IV was incubated with kDNA as described in the protocol (Inspiralis). Human Top2α relaxation assays were performed as reported using 2 nM of enzyme. […] Reactions were analysed by electrophoresis in 1% w/v agarose gels followed by ethidium bromide staining. IC50 values, defined as the amount of compound that causes half-maximal inhibition, were determined by quantifying the DNA products using densitometry (VisionWorks, UVP) and fitting the data by nonlinear regression with GraFit software (Erythacus). Compound IC50 values reported are the averages of two to three determinations.

Acinetobacter baumannii = experiment: MIC, broth microdilution, A. baumannii strains; format: cell-based; set-up: unit not given here; settings: A. baumannii ACM1015 adeABC adeIJK (footnote c)
Procedure: as §1

Haemophilus influenzae = experiment: MIC, broth microdilution, H. influenzae strains; format: cell-based; set-up: unit not given here
Procedure: as §1

Klebsiella pneumoniae = experiment: MIC, broth microdilution, K. pneumoniae strains; format: cell-based; set-up: unit not given here; settings: Klebsiella pneumoniae 1161486 tolC
Procedure: as §1

S. aureus DNA gyrase [8] = biological target: T1, S. aureus DNA gyrase; experiment: S. aureus DNA gyrase supercoiling inhibition assay; format: biochemical
Procedure: as §4

S. aureus Topo IV [9] = biological target: T2, S. aureus Topo IV; experiment: S. aureus topo IV decatenation inhibition assay; format: biochemical
Procedure: as §4

E. coli Topo IV [10] = biological target: T3, E. coli Topo IV; experiment: E. coli topo IV decatenation inhibition assay; format: biochemical
Procedure: as §4

[11] = S. aureus RN4220 (parent), read-out: MIC
[12] = S. aureus RN4220 GyrB ΔT403-K406, read-out: MIC
[13] = Escherichia coli, E. coli 7623, read-out: MIC
[14] = Escherichia coli, E. coli 7623 ΔtolC
[15] = S. pneumoniae 1629, read-out: MIC
[16] = S. pneumoniae 1629 GyrB ΔL407–S410, read-out: MIC

Compound	MIC (S. aureus; [11]) [µg/mL]	MIC (S. aureus; S. aureus RN4220 GyrB D437A) [µg/mL]	MIC (S. aureus; S. aureus RN4220 GyrB D437N) [µg/mL]	MIC (S. aureus; S. aureus RN4220 GyrB D437V) [µg/mL]	MIC (S. aureus; S. aureus RN4220 GyrB P456L) [µg/mL]	MIC (S. aureus; [12]) [µg/mL]	further results
COc1cc(NS(C)(=O)=O)ccc1Nc1c2ccccc2nc2ccccc12 [Amsacrine, amsacrine]	> 128	32 (≈ 81.3 µM)	> 128	64 (≈ 163 µM)	32 (≈ 81.3 µM)	128 (≈ 325 µM)	–
Cc1c2ccncc2c(C)c2c1[nH]c1ccccc12 [Ellipticine, ellipticine]	1 (≈ 4.06 µM)	1 (≈ 4.06 µM)	1 (≈ 4.06 µM)	1 (≈ 4.06 µM)	1 (≈ 4.06 µM)	1 (≈ 4.06 µM)	–
COc1cccc2c1C(=O)c1c(O)c3c(c(O)c1C2=O)C[C@@](O)(C(C)=O)C[C@@H]3O[C@H]1C[C@H](N)[C@H](O)[C@H](C)O1 [Daunorubicin, daunorubicin]	8 (≈ 15.2 µM)	8 (≈ 15.2 µM)	8 (≈ 15.2 µM)	8 (≈ 15.2 µM)	4 (≈ 7.58 µM)	1.5 (≈ 2.84 µM)	–
COc1cc([C@@H]2c3cc4c(cc3[C@@H](O[C@@H]3O[C@@H]5CO[C@@H](c6cccs6)O[C@H]5[C@H](O)[C@H]3O)[C@H]3COC(=O)[C@H]23)OCO4)cc(OC)c1O [Teniposide, teniposide]	16 (≈ 24.4 µM)	32 (≈ 48.7 µM)	32 (≈ 48.7 µM)	64 (≈ 97.5 µM)	32 (≈ 48.7 µM)	32 (≈ 48.7 µM)	–
O=C1c2c(O)ccc(O)c2C(=O)c2c(NCCNCCO)ccc(NCCNCCO)c21 [Mitoxantrone, mitoxantrone]	32 (≈ 72 µM)	8 (≈ 18 µM)	32 (≈ 72 µM)	8 (≈ 18 µM)	4 (≈ 9 µM)	6 (≈ 13.5 µM)	–
COc1cccc2c1C(=O)c1c(O)c3c(c(O)c1C2=O)C[C@@](O)(C(=O)CO)C[C@@H]3O[C@H]1C[C@H](N)[C@H](O)[C@H](C)O1 [Doxorubicin, doxorubicin]	8 (≈ 14.7 µM)	8 (≈ 14.7 µM)	8 (≈ 14.7 µM)	8 (≈ 14.7 µM)	4 (≈ 7.36 µM)	3 (≈ 5.52 µM)	–
COc1ccc2ncc(C#N)c(CCN3CCC(NCc4cc5c(cn4)OCS5)CC3)c2c1 [GSK299423]	0.016 (≈ 0.0347 µM)	0.125 (≈ 0.271 µM)	0.125 (≈ 0.271 µM)	0.125 (≈ 0.271 µM)	0.125 (≈ 0.271 µM)	0.016 (≈ 0.0347 µM)	–
COc1c(N2C[C@@H]3CCCN[C@@H]3C2)c(F)cc2c(=O)c(C(=O)O)cn(C3CC3)c12 [Moxifloxacin, moxifloxacin]	0.063 (≈ 0.157 µM)	0.063 (≈ 0.157 µM)	0.063 (≈ 0.157 µM)	–	–	–	Type of DNA breaks stabilized with S. aureus DNA gyrase (S. aureus DNA gyrase [1]): DSB; MIC (E. coli; [13]): ≤ 0.016 µg/mL; MIC (E. coli; [14]): ≤ 0.016 µg/mL; MIC (S. pneumoniae; [15]): 0.031 µg/mL (≈ 0.0772 µM); MIC (S. pneumoniae; S. pneumoniae 1629 GyrB R447C): 0.094 µg/mL (≈ 0.234 µM); MIC (S. pneumoniae; [16]): 0.047 µg/mL (≈ 0.117 µM); IC50 (S. aureus Topo IV [2]): 3.8 µM
C[C@@H]1CN2c3c(cc4c(N5C(=O)OC[C@@H]5C)noc4c3F)CC3(C(=O)NC(=O)NC3=O)[C@H]2[C@H](C)O1 [AZD9014]	–	–	–	–	–	–	Activity against human Top2β (human Top2β): low activity
C[C@@H]1CN2c3ccc([N+](=O)[O-])cc3CC3(C(=O)NC(=O)NC3=O)[C@H]2[C@H](C)O1 [QPT-1, quinoline pyrimidine trione-1]	0.5 (≈ 1.34 µM)	2 (≈ 5.34 µM)	4 (≈ 10.7 µM)	–	–	–	IC50 (E. coli Topo IV [3]): 30 µM; DNA cleavage activity relative to the (+) enantiomer (more active) (E. coli DNA gyrase [4]): ~ 30 fold; IC50 (Human Top2α [5]): > 500 µM; EC50 (S. aureus DNA gyrase [1]): 8.8 µM; Type of DNA breaks stabilized with S. aureus DNA gyrase (S. aureus DNA gyrase [1]): DSB; Activity against human Top2α (Human Top2α [6]): does not have detectable activity; EC50 (Human Top2α [6]): > 800 µM; IC50 (E. coli DNA gyrase [7]): 0.65 µM; MIC (E. coli; Escherichia coli 7623 tolC): 0.063 µg/mL (≈ 0.168 µM); MIC (E. coli; [13]): 8 µg/mL (≈ 21.4 µM); MIC (E. coli; [14]): 0.063 µg/mL (≈ 0.168 µM); MIC (Acinetobacter baumannii): 0.125; MIC (Haemophilus influenzae; Haemophilus influenzae H128): ≤ 0.125; MIC (Haemophilus influenzae; Haemophilus influenzae H128 acrB): ≤ 0.125; MIC (Klebsiella pneumoniae): 0.125
COc1cc([C@@H]2c3cc4c(cc3[C@@H](O[C@@H]3O[C@@H]5CO[C@@H](C)O[C@H]5[C@H](O)[C@H]3O)[C@H]3COC(=O)[C@H]23)OCO4)cc(OC)c1O [Etoposide, etoposide]	64 (≈ 109 µM)	256 (≈ 435 µM)	128 (≈ 217 µM)	256 (≈ 435 µM)	256 (≈ 435 µM)	256 (≈ 435 µM)	IC50 (S. aureus DNA gyrase [8]): 48 µM; Plateau of fitted IC50 curve, % of maximal inhibition (S. aureus DNA gyrase [8]; S. aureus DNA gyrase supercoiling): ~75%; EC50 (S. aureus DNA gyrase [1]): 107 µM; Type of DNA breaks stabilized with S. aureus DNA gyrase (S. aureus DNA gyrase [1]): both SSB and DSB; IC50 (E. coli DNA gyrase [7]): 134 µM; Plateau of fitted IC50 curve, % of maximal inhibition (E. coli DNA gyrase [7]; E. coli DNA gyrase supercoiling): approx. 60%; IC50 (S. aureus Topo IV [9]): 246 µM; Plateau of fitted IC50 curve, % of maximal inhibition (S. aureus Topo IV [9]): ~50%; MIC (E. coli; [13]): > 256 µg/mL; MIC (E. coli; [14]): 0.75 µg/mL (≈ 1.27 µM); MIC (S. pneumoniae; [15]): 2 µg/mL (≈ 3.4 µM); MIC (S. pneumoniae; S. pneumoniae 1629 GyrB R447C): 16 µg/mL (≈ 27.2 µM); MIC (S. pneumoniae; [16]): 16 µg/mL (≈ 27.2 µM); Plateau of fitted IC50 curve, % of maximal inhibition (E. coli Topo IV [10]; E. coli Topo IV decatenation): ~75%; IC50 (E. coli Topo IV [10]; read-out: IC50, E. coli Topo IV decatanation): 107 µM
